# Molecular target: T1, human PAR4 (Homo sapiens, UniProt Q96RI0)
# T1 construct: expressed in transfected cells; host or cells: HEK293 PAR4 Clone 1.2A (BMS Arctic ID 383940)
# T1 sequence (Q96RI0 18-385): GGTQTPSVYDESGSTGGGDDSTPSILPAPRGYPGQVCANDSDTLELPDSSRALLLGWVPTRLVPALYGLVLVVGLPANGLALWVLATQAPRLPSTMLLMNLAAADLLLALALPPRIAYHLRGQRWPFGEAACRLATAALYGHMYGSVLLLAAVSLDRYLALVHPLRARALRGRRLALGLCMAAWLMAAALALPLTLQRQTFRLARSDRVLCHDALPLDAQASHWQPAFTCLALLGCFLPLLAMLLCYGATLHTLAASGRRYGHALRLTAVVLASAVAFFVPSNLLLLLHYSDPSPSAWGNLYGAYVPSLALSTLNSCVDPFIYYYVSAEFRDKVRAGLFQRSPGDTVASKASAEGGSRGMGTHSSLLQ
# Experiment: PAR4 FLIPR assay: antagonism of agonist-peptide-induced calcium mobilization in PAR4-expressing HEK293 cells
# Format: cell-based
# Conditions: H-Ala-Phe(4-F)-[…]NH2-induced intracellular calcium mobilization, 11-point curves
row,IC50 [nM],Structure (SMILES)
1,3.8,"COc1cnc2c(-c3nc4cc(F)c(O[C@@H](C)[C@@H](C)OC(=O)Nc5ccc(C(C)(C)O)nc5)cc4s3)cc(C)cc2n1 [Example 500, (2R,3S)-3-((5-fluoro-2-(2-methoxy-7-methylquinoxalin-5-yl)benzo[d]thiazol-6-yl)oxy)butan-2-yl (6-(2-hydroxypropan-2-yl)pyridin-3-yl)carbamate]"
2,0.5,"COc1cnc2c(-c3nc4cc(F)c(OC[C@@H](C)OC(=O)Nc5cnc(C(N)=O)nc5)cc4s3)cc(C)cc2n1 [Example 429, (R)-1-((5-fluoro-2-(2-methoxy-7-methylquinoxalin-5-yl)benzo[d]thiazol-6-yl)oxy)propan-2-yl (2-carbamoylpyrimidin-5-yl)carbamate]"
3,1.8,"COc1cnc2c(-c3nc4cc(F)c(OC[C@@H](C)OC(=O)Nc5ccc(C#N)nc5)cc4s3)cc(C#N)cc2n1 [Example 818, (R)-1-((2-(7-cyano-2-methoxyquinoxalin-5-yl)-5-fluorobenzo[d]thiazol-6-yl)oxy)propan-2-yl (6-cyanopyridin-3-yl)carbamate]"
4,2.3,"COc1cnc2c(-c3nc4c(Cl)c(F)c(OC[C@@H](C)OC(=O)Nc5ccc(CO)nc5)cc4s3)cc(C)cc2n1 [Example 385, (R)-1-((4-chloro-5-fluoro-2-(2-methoxy-7-methylquinoxalin-5-yl)benzo[d]thiazol-6-yl)oxy)propan-2-yl (6-(hydroxymethyl)pyridin-3-yl)carbamate]"
5,0.4,"CNC(=O)c1ccc(NC(=O)O[C@H](C)COc2cc3sc(-c4cc(C)cc5nc(OC)cnc45)nc3cc2F)cn1 [Example 432, (R)-1-((5-fluoro-2-(2-methoxy-7-methylquinoxalin-5-yl)benzo[d]thiazol-6-yl)oxy)propan-2-yl (6-(methylcarbamoyl)pyridin-3-yl)carbamate]"
6,1.9,"COc1cnc2c(-c3nc4cc(F)c(OC[C@@H](C)OC(=O)Nc5cnc(C)nc5)nc4s3)cc(Cl)cc2c1 [Example 770, (R)-1-((2-(6-chloro-3-methoxyquinolin-8-yl)-6-fluorothiazolo[5,4-b]pyridin-5-yl)oxy)propan-2-yl (2-methylpyrimidin-5-yl)carbamate]"
7,110,"COc1cnc2c(-c3nc4c(Cl)c(F)c(OC[C@@H](C)OC(=O)Nc5ccc(C(F)(F)F)nc5)cc4s3)cc(C)cc2n1 [Example 374, (R)-1-((4-chloro-5-fluoro-2-(2-methoxy-7-methylquinoxalin-5-yl)benzo[d]thiazol-6-yl)oxy)propan-2-yl (6-(trifluoromethyl)pyridin-3-yl)carbamate]"
8,1.4,"COc1ccc(NC(=O)OCC(C)Oc2cc3sc(-c4cc(C)cc5nc(OC)cnc45)nc3c(Cl)c2F)cn1 (racemic) [Example 381, 2-((4-chloro-5-fluoro-2-(2-methoxy-7-methylquinoxalin-5-yl)benzo[d]thiazol-6-yl)oxy)propyl (6-methoxypyridin-3-yl)carbamate]"
9,0.9,"COc1cnc2c(-c3nc4cc(F)c(OC[C@@H](C)OC(=O)Nc5ccc(CCO)nc5)nc4s3)cc(C)cc2n1 [Example 691, (R)-1-((6-fluoro-2-(2-methoxy-7-methylquinoxalin-5-yl)thiazolo[5,4-b]pyridin-5-yl)oxy) propan-2-yl (6-(2-hydroxyethyl)pyridin-3-yl)carbamate]"

# Further lines, the compound ahead of its results:
row,Structure (SMILES),IC50 [nM]
1,"COc1cc(C(O)C(C)(C)C)c2nc(-c3cc(C)cc4nc(OC)cnc34)sc2c1 (stereo not drawn) [Example 637, 1-(6-methoxy-2-(2-methoxy-7-methylquinoxalin-5-yl)benzo[d]thiazol-4-yl)-2,2-dimethylpropan-1-ol]",2.1
2,"COc1cnc2c(-c3nc4cc(F)c(O[C@@H](C)[C@@H](C)OC(=O)Nc5ccncc5)cc4s3)cc(Cl)cc2c1 [Example 790, (2R,3S)-3-((2-(6-chloro-3-methoxyquinolin-8-yl)-5-fluorobenzo[d]thiazol-6-yl)oxy)butan-2-yl pyridin-4-ylcarbamate]",4.4
3,"COc1cnc2c(-c3nc4c(C)cc(OCCNS(=O)(=O)c5ccc(C)cc5)nc4s3)cc(C)cc2n1 [Example 762, N-(2-((2-(2-methoxy-7-methylquinoxalin-5-yl)-7-methylthiazolo[5,4-b]pyridin-5-yl)oxy)ethyl)-4-methylbenzenesulfonamide]",1.4
4,"COc1cnc2c(-c3cc4cccc(Cl)c4o3)cc(C)cc2n1 [Example 37, 5-(7-chlorobenzofuran-2-yl)-2-methoxy-7-methylquinoxaline]",22
5,"COc1cnc2c(-c3nc4c(Cl)c(F)c(OCCOC(=O)Nc5cncc(F)c5)cc4s3)cc(C)cc2n1 [Example 337, 2((4-chloro-5-fluoro-2-(2-methoxy-7-methylquinoxalin-5-yl)benzo[d]thiazol-6-yl)oxy)ethyl (5-fluoropyridin-3-yl)carbamate]",0.7
6,"COCc1cnc2c(-c3nc4c(Cl)c(C)c(OC)cc4s3)cc(C)cc2n1 [Example 298, 4-chloro-6-methoxy-2-(2-(methoxymethyl)-7-methylquinoxalin-5-yl)-5-methylbenzo[d]thiazole]",2.1
7,"COCc1cnc2c(-c3nc4c(C)cc(OCCNS(=O)(=O)c5ccc(F)cc5)cc4s3)cc(F)cc2n1 [Example 207, 4-fluoro-N-(2-((2-(7-fluoro-2-(methoxymethyl)quinoxalin-5-yl)-4-methylbenzo[d]thiazol-6-yl)oxy)ethyl)benzenesulfonamide]",0.9
8,"COc1cnc2c(-c3nc4cc(F)c(O[C@@H](C)[C@@H](C)OC(=O)Nc5ccnc(OCCO)c5)cc4s3)cc(C)cc2n1 [Example 388, (2R,3S)-3-((5-fluoro-2-(2-methoxy-7-methylquinoxalin-5-yl)benzo[d]thiazol-6-yl)oxy)butan-2-yl (2-(2-hydroxyethoxy)pyridin-4-yl)carbamate]",0.7
9,"COc1cnc2c(-c3nc4c(Cl)cc(OCCNS(=O)(=O)c5ccccc5)cc4s3)cc(C)cc2n1 [Example 27, N-(2-((4-chloro-2-(2-methoxy-7-methylquinoxalin-5-yl)benzo[d]thiazol-6-yl)oxy)ethyl)benzenesulfonamide]",5.4
10,"COc1cnc2c(-c3nc4c(C)cc(OCC(=O)O)cc4s3)cc(Cl)cc2n1 [Example 251, 2-((2-(7-chloro-2-methoxyquinoxalin-5-yl)-4-methylbenzo[d]thiazol-6-yl)oxy)acetic acid]",17
11,"COc1cnc2c(-c3nc4c(C)c(C)c(OC)cc4s3)cc(CO)cc2n1 [Example 219, (3-methoxy-8-(6-methoxy-4,5-dimethylbenzo [d]thiazol-2-yl)quinoxalin-6-yl)methanol]",5.5
12,"COC(=O)c1cnc2c(-c3nc4c(C)cc(OCCNS(=O)(=O)c5ccc(F)cc5)cc4s3)cc(C)cc2n1 [Example 32, methyl 5-(6-(2-(4-fluorophenylsulfonamido)ethoxy)-4-methylbenzo[d]thiazol-2-yl)-7-methylquinoxaline-2-carboxylate]",3
13,"CNC(=O)c1cnc2c(-c3nc4cc(F)c(O[C@@H](C)[C@@H](C)OC(=O)Nc5cnc(C)nc5)cc4s3)cc(C)cc2n1 (stereo in doubt) [Example 393, (2R,3S)-3-((5-fluoro-2-(7-methyl-2-(methylcarbamoyl)quinoxalin-5-yl)benzo[d]thiazol-6-yl)oxy)butan-2-yl (2-methylpyrimidin-5-yl)carbamate]",30
14,"COCc1cnc2c(-c3nc4c(C)cc(OC)cc4s3)cc(C(=O)OC)cc2n1 [Example 204, methyl 8-(6-methoxy-4-methylbenzo[d]thiazol-2-yl)-3-(methoxymethyl) quinoxaline-6-carboxylate]",3.1
15,"COc1cnc2c(-c3nc4cc(F)c(O[C@@H](C)[C@@H](C)OC(=O)Nc5cnc(OC[C@H](C)O)nc5)cc4s3)cc(Cl)cc2c1 [Example 541, (2R,3S)-3-((2-(6-chloro-3-methoxyquinolin-8-yl)-5-fluorobenzo[d]thiazol-6-yl)oxy)butan-2-yl (2-((S)-2-hydroxypropoxy)pyrimidin-5-yl)carbamate]",3.4
16,"COCc1cnc2c(-c3nc4c(C)cc(OC)cc4s3)cc(Cl)cc2c1 [Example 625, 2-(6-chloro-3-(methoxymethyl)quinolin-8-yl)-6-methoxy-4-methylbenzo[d]thiazole]",1.8
17,"COCc1cnc2c(-c3nc4c(Cl)c(F)c(OCCOC(=O)Nc5ccc(F)nc5)cc4s3)cc(C)cc2n1 [Example 305, 2-((4-chloro-5-fluoro-2-(2-(methoxymethyl)-7-methylquinoxalin-5-yl)benzo[d]thiazol-6-yl)oxy)ethyl (6-fluoropyridin-3-yl)carbamate]",1
18,"COCc1cnc2c(-c3nc4c(C(C)(C)O)cc(OC)cc4s3)cc(C)cc2n1 [Example 157, 2-(6-methoxy-2-(2-(methoxymethyl)-7-methylquinoxalin-5-yl)benzo[d]thiazol-4-yl) propan-2-ol]",31
19,"COc1cnc2c(-c3nc4cc(F)c(OC[C@@H](C)OC(=O)Nc5cnc(OCCC(C)(C)O)nc5)nc4s3)cc(C)cc2n1 [Example 702, (R)-1-((6-fluoro-2-(2-methoxy-7-methylquinoxalin-5-yl)thiazolo[5,4-b]pyridin-5-yl)oxy) propan-2-yl (2-(3-hydroxy-3-methylbutoxy)pyrimidin-5-yl)carbamate]",4.3
20,"COCc1cnc2c(-c3nc4c(CO)cc(OC)cc4s3)cc(C)cc2n1 [Example 155, (6-methoxy-2-(2-(methoxymethyl)-7-methylquinoxalin-5-yl)benzo[d]thiazol-4-yl) methanol]",0.8
21,"COc1cccc2cc(-c3cc(C)cc4nc(OC(F)F)cnc34)oc12 [Example 41, 2-(difluoromethoxy)-5-(7-methoxybenzofuran-2-yl)-7-methylquinoxaline]",400

# — patent US12060347B2 (BRISTOL-MYERS SQUIBB COMPANY, priority 2016, dated 2024)
